Measurements published in ChEMBL document CHEMBL1201862, “PubChem BioAssay data set” (2004).
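Tested at 5 concentrations; 48 h exposure; 96-well plates; endpoints linearly interpolated, else capped at highest concentration. Abbreviation: GI50, concentration required for 50% inhibition of growth.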 Activity calls are given as the source filed them. Rule as the data show it: active = GI50 up to about 1.1 µM and inactive = higher.

Key:
Test in all cases: NCI anticancer screen, dose series, 48 h
786-0 = tested on: 786-0
A549 = tested on: A549
ACHN = tested on: ACHN
CAKI-1 = tested on: CAKI-1
CCRF-CEM = tested on: CCRF-CEM
COLO 205 = tested on: COLO 205
DLD-1 = tested on: DLD-1
HCC 2998 = tested on: HCC 2998
HCT-116 = tested on: HCT-116
HCT-15 = tested on: HCT-15
HL-60 = tested on: HL-60
HOP-62 = tested on: HOP-62
HT-29 = tested on: HT-29
IGROV-1 = tested on: IGROV-1
K562 = tested on: K562
KM-20L2 = tested on: KM-20L2
KM12 = tested on: KM12
LOX IMVI = tested on: LOX IMVI
LXFL 529 = tested on: LXFL 529
M14 = tested on: M14
M19-MEL = tested on: M19-MEL
MOLT-4 = tested on: MOLT-4
Malme-3M = tested on: Malme-3M
NCI-H226 = tested on: NCI-H226
NCI-H23 = tested on: NCI-H23
NCI-H460 = tested on: NCI-H460
NCI-H522 = tested on: NCI-H522
OVCAR-3 = tested on: OVCAR-3
OVCAR-4 = tested on: OVCAR-4
OVCAR-5 = tested on: OVCAR-5
OVCAR-8 = tested on: OVCAR-8
RPMI-8226 = tested on: RPMI-8226
RXF 393 = tested on: RXF 393
SF-268 = tested on: SF-268
SF-295 = tested on: SF-295
SF-539 = tested on: SF-539
SK-MEL-28 = tested on: SK-MEL-28
SK-MEL-5 = tested on: SK-MEL-5
SK-OV-3 = tested on: SK-OV-3
SN12C = tested on: SN12C
SNB-19 = tested on: SNB-19
SNB-75 = tested on: SNB-75
SNB-78 = tested on: SNB-78
SR = tested on: SR
SW-620 = tested on: SW-620
TK-10 = tested on: TK-10
U-251 = tested on: U-251
UACC-257 = tested on: UACC-257
UACC-62 = tested on: UACC-62
UO-31 = tested on: UO-31

Measured: GI50

CC(=O)OC[C@]1(C)CCCC2(C)C1CCC1C=C(C)[C@H]3CCC12C3 (stereo not given in full)
48.3 µM: HCT-15
inactive: 786-0 66.2 µM | A549 65.2 µM | ACHN > 100 µM | CAKI-1 > 100 µM | CCRF-CEM > 100 µM | COLO 205 38.5 µM | DLD-1 99.3 µM | HCC 2998 > 100 µM | HCT-116 47.4 µM | HL-60 > 100 µM | HOP-62 50.9 µM | HT-29 43.3 µM | IGROV-1 > 100 µM | K562 > 100 µM | KM-20L2 42.9 µM | KM12 52.6 µM | LOX IMVI 47.5 µM | LXFL 529 > 100 µM | M14 35.2 µM | M19-MEL 63.4 µM | MOLT-4 > 100 µM | Malme-3M > 100 µM | NCI-H226 > 100 µM | NCI-H23 94.4 µM | NCI-H460 33.7 µM | NCI-H522 10.6 µM | OVCAR-3 61.4 µM | OVCAR-4 > 100 µM | OVCAR-5 > 100 µM | OVCAR-8 > 100 µM | RPMI-8226 62.7 µM | RXF 393 44.4 µM | SF-268 37.8 µM | SF-295 35 µM | SF-539 25.5 µM | SK-MEL-28 60.5 µM | SK-MEL-5 > 100 µM | SK-OV-3 44.1 µM | SN12C 40.3 µM | SNB-19 > 100 µM | SNB-75 31.8 µM | SNB-78 45.9 µM | SR > 100 µM | SW-620 31.6 µM | TK-10 > 100 µM | U-251 39.7 µM | UACC-257 61.7 µM | UACC-62 56.9 µM | UO-31 > 100 µM
